According to US10441562B2, “Aromatic farnesyl compound and application thereof” (INSTITUTE OF MICROBIOLOGY, CHINESE ACADEMY OF SCIENCES, priority 2015, dated 2019):
Marks after values point to notes of the source that are not given here.

Experiments:
[1] = tested on: rats fed with high fat diet; test: blood lipid of rats fed with high fat diet; format: in vivo, SD rats; conditions: 50 mg/kg intragastric, 10 days, serum
From the text: Serum total cholesterol kit (batch number 20131112), low density lipoprotein LDL-C kit (batch number 20140114), high density lipoprotein HDL-C kit (batch number 20140413), triglyceride TG kit (batch number 20131226), superoxide dismutase SOD kit (batch number 20140213) and glutamic-pyruvic transaminase ALT kit (batch number 20131006) are purchased from Nanjing Jiancheng Bioengineering Institute.
Methods: after being acclimatized for 1 week, the 200±20 g healthy male SD rats are randomly divided into 4 groups of 8 animals in each. The control group is fed with normal diet, while the other groups are fed with high-fat diet, which is normal diet with 1% cholesterol, 0.2% pig bile sal, 10% lard and 10% egg yolk powder. After being fed for 3 weeks, 10 mg/ml extract solution of 1 ml (which corresponds to 50 mg/kg) is given to different groups of rats by intragastric administration for 10 days successively, and the control group and model group are given with equal amounts of saline. After the last administration, blood is taken to be centrifuged at 3000 rpm in 4[…], and then detect serum total cholesterol, low density lipoprotein and triglyceride TG

[2] = acute toxicity test of mice; conditions: Kunming, mouse, in vivo, po, 5 g/kg
Method: (§1) Materials: 20 Kunming species mice of 6-8 weeks of 20-22 g are purchased from Beijing Vital River Laboratory Animal Technology Co., Ltd.,
(§2) Accurately weigh the 2 compounds S13 and S28, and then add 0.5% CMC-Na to make the solution of 0.2 g/ml.
(§3) After being acclimatized for 3-5 days, the mice are fasted at 18:00 in the day before the experiment, free drinking. The mice are randomly divided into groups of 10 animals in each and given with medicine by intragastric administration, and 0.25 ml of drugs is given to every 10 g weight of mice, i.e. dose 5 g/kg. Mice of control group are given with 0.5% CMC-Na by intragastric administration, and 0.25 ml of solution are given to every 10 g weight of mice.
(§4) After administration, observe the general status of mice, such as appearance, behavior, response to stimulus, secretion and excretion, and record the time when abnormal phenomena happen. If death occurred, record time and observe the abnormal phenomena by autopsy.

Kunming species mice = test: acute toxicity test of mice
Method: as §1, §2, §3, §4

[3] = tested on: hyperglycemia KK-A^y mice; test: blood lipid and liver function of hyperglycemia KK-A^y mice; format: in vivo; conditions: 3 weeks
Method: Materials: accurately weigh the 2 compounds S13 and S28 discussed in example 2, and then add 0.5% CMC-Na to make the solution of 5 mg/ml used for activity test. KK-A^y mice are purchased from Chinese Academy of Medical Sciences & Peking Union Medical College Institute of Animal Studies. Experiments are carried out after adapting to the environment (T=20-24° C., constant humidity: 50-60%, 12 hours light exposure (8:00-20:00), soundproof, free feeding and drinking) for 1 week. Glucometer is purchased from Roche.
Methods: 10 male C57 mice of 6-8 weeks of 20-22 g are used as normal control group (1). Detect the fasting glucose of male KK-A^y mice, which are 6-8 weeks with the weight of 28-32 g, and divide them into different groups according to the blood sugar level and body weight: (2) model control group, (3) which is administered by compound S13 with the dose of 1 mg/kg, (4) which is administered by compound S13 with the dose of 5 mg/kg, (5) which is administered by compound S13 with the dose of 10 mg/kg, (6) which is administered by compound S13 with the dose of 20 mg/kg, (7) which is administered by compound S28 with the dose of 1 mg/kg, (8) which is administered by compound S28 with the dose of 5 mg/kg, (9) which is administered by compound S28 with the dose of 10 mg/kg, (10) which is administered by compound S28 with the dose of 20 mg/kg, (11) which is administered by metformin with the dose of 8 g/kg, (12) which is administered by compound S13 with the dose of 2.5 mg/kg and metformin with the dose of 4 g/kg, (13) which is administered by compound S13 with the dose of 5 mg/kg and metformin with the dose of 4 g/kg, (14) which is administered by compound S28 with the dose of 2.5 mg/kg and metformin with the dose of […], (15) which is administered by compound S28 with the dose of 5 mg/kg and metformin with the dose of […]. Each group has 8 mice, and is administrated successively for 3 weeks. Model control group is given with equal amounts of 0.5% CMC-Na.
4) After the last administration, the mice are executed under anesthesia, and blood is taken to be centrifuged at 3000 rpm in 4[…]. Serum total cholesterol, low density lipoprotein and triglyceride TG are detected.

SMILES	ALT [1]	HDL-C [1]	LDL-C [1]	SOD [1]	TC [1]	TG [1]	LD50 [2]	ALT ([3]; 1 mg/kg, groups 3, 7)	AST ([3]; 1 mg/kg, groups 3, 7)	HDL-C ([3]; 1 mg/kg, groups 3, 7)	LDL-C ([3]; 1 mg/kg, groups 3, 7)	SOD ([3]; 1 mg/kg, groups 3, 7)	TC ([3]; 1 mg/kg, groups 3, 7)	TG ([3]; 1 mg/kg, groups 3, 7)	ALT ([3]; 5 mg/kg, groups 4, 8)	AST ([3]; 5 mg/kg, groups 4, 8)	HDL-C ([3]; 5 mg/kg, groups 4, 8)	LDL-C ([3]; 5 mg/kg, groups 4, 8)	SOD ([3]; 5 mg/kg, groups 4, 8)	TC ([3]; 5 mg/kg, groups 4, 8)	further results
CC(C)=CCC/C(C)=C/CCC1=C[C@H](c2cc(O)ccc2O)OC1=O [S13, (R,E)-5-(2,5-dihydroxyphenyl)-3-(4,8-dimethylnona-3,7-dien-1-yl)furan-2(5H)-one]	61.3* U/L	0.99 mmol/L	0.36** mmol/L	2.04 U/L	2.13* mmol/L	0.44* mmol/L	> 5000 mg/kg	72.1** U/L	56.2** U/L	22.4 mg/dL	64* mg/dL	5.01** U/L	132** mg/dL	328** mg/dL	72.8** U/L	63.5** U/L	22.4 mg/dL	64** mg/dL	4.24* U/L	134** mg/dL	abnormal phenomena by autopsy (Kunming species mice; mice, intragastric administration, dose 5 g/kg): no obvious abnormal phenomena are found by autopsy; TG ([3]; 5 mg/kg, groups 4, 8): 310** mg/dL; ALT ([3]; 10 mg/kg, groups 5, 9): 67.1** U/L; AST ([3]; 10 mg/kg, groups 5, 9): 60.8** U/L; HDL-C ([3]; 10 mg/kg, groups 5, 9): 22.5 mg/dL; LDL-C ([3]; 10 mg/kg, groups 5, 9): 64** mg/dL; SOD ([3]; 10 mg/kg, groups 5, 9): 4.11** U/L; TC ([3]; 10 mg/kg, groups 5, 9): 131** mg/dL; TG ([3]; 10 mg/kg, groups 5, 9): 327** mg/dL; ALT ([3]; 20 mg/kg, groups 6, 10): 61.2** U/L; AST ([3]; 20 mg/kg, groups 6, 10): 60.5** U/L; HDL-C ([3]; 20 mg/kg, groups 6, 10): 22.1 mg/dL; LDL-C ([3]; 20 mg/kg, groups 6, 10): 53** mg/dL; SOD ([3]; 20 mg/kg, groups 6, 10): 4.52** U/L; TC ([3]; 20 mg/kg, groups 6, 10): 125** mg/dL; TG ([3]; 20 mg/kg, groups 6, 10): 310** mg/dL
CC(C)=CCC/C(C)=C/CCC1=C[C@@H](c2cc(O)ccc2O)OC1=O [S28, (S,E)-5-(2,5-dihydroxyphenyl)-3-(4,8-dimethylnona-3,7-dien-1-yl)furan-2(5H)-one]	72.1* U/L	0.97 mmol/L	0.38** mmol/L	2.10* U/L	1.98** mmol/L	0.45* mmol/L	> 5000 mg/kg	72.5** U/L	56.5** U/L	22.1 mg/dL	64** mg/dL	5.12** U/L	134** mg/dL	325** mg/dL	71.2** U/L	63.6** U/L	22.3 mg/dL	69* mg/dL	4.25* U/L	134** mg/dL	abnormal phenomena by autopsy (Kunming species mice; mouse, in vivo): no obvious abnormal phenomena are found by autopsy; body weight of mice after administration (Kunming species mice; mouse, in vivo): drop slightly; TG ([3]; 5 mg/kg, groups 4, 8): 312** mg/dL; ALT ([3]; 10 mg/kg, groups 5, 9): 62.5** U/L; AST ([3]; 10 mg/kg, groups 5, 9): 60.6** U/L; HDL-C ([3]; 10 mg/kg, groups 5, 9): 22.5 mg/dL; LDL-C ([3]; 10 mg/kg, groups 5, 9): 69* mg/dL; SOD ([3]; 10 mg/kg, groups 5, 9): 4.12* U/L; TC ([3]; 10 mg/kg, groups 5, 9): 135** mg/dL; TG ([3]; 10 mg/kg, groups 5, 9): 331** mg/dL; ALT ([3]; 20 mg/kg, groups 6, 10): 61.5** U/L; AST ([3]; 20 mg/kg, groups 6, 10): 60.6** U/L; HDL-C ([3]; 20 mg/kg, groups 6, 10): 22.4 mg/dL; LDL-C ([3]; 20 mg/kg, groups 6, 10): 54** mg/dL; SOD ([3]; 20 mg/kg, groups 6, 10): 4.34* U/L; TC ([3]; 20 mg/kg, groups 6, 10): 123** mg/dL; TG ([3]; 20 mg/kg, groups 6, 10): 312** mg/dL
